Measurements: patent US9364468B2, “Pharmaceutical composition for preventing or treating tuberculosis” (INDUSTRY-ACADEMIC COOPERATION FOUNDATION, YONSEI UNIVERSITY, priority 2012, dated 2016)

Experiments:
[1] = test system: Mycobacterium sp. strain JC1 wild type; assay: CFU inhibition of JC1 wild type by compound alone; type: cell-based; details: read-out: Compound analog + JC 1 wild type (percentage (%) of CFU inhibition)
[2] = test system: Vero cell line (ATCC CCL-81); assay: Cytotoxicity test, CellTiter 96 Non-Radioactive Cell Proliferation Assay, Vero cell line; type: cell-based; details: Chlorocebus sabaeus, 72 h, 3 days
[3] = test system: carbon monoxide dehydrogenase (CO-DH); assay: CO-DH activity assay (INT reduction in the presence of CO, enzyme extract); type: biochemical; details: 12.5 μM compound; relative to control group set to 100%
Protocol: In order to obtain an enzyme extract to be used for the measurement of CO-DH activity, the bacteria cultured according to respective experiment conditions were collected by centrifugation at 18,000×g for 10 minutes at 4° C. (Eppendorf centrifuge-5403, Hamburg, Germany), washed twice with a 50 mM Tris-HCl (pH 7.5) buffer solution, and re-suspended in […] of a 50 mM Tris-HCl (pH 7.5) buffer solution. The suspended bacteria were homogenized at 0° C. by repeating 20 times of ultrasonication using an ultrasonic processor (Sonics & Materials Inc., Danbury, Conn.) wherein the ultrasonication was conducted such that ultrasonic wave at 20% amplitude was applied for 3 seconds and paused for 10 seconds. The homogenized culture solution was collected by centrifugation at 18,000×g for 30 minutes at 4° C. (Eppendorf centrifuge-5403), and a supernatant was used as an enzyme extract.
Proteins were quantified using bovine serum albumin (BSA) as a standard protein according to the method of Bradford (1976).
CO-DH activity was determined by measuring the reduction rate of 2-(4-indophenyl)-3-(4-nitrophenyl)-2H-tetrazolium chloride (INT, Sigma, ε496=17.981 mM^−1 cm^−1) in the presence of CO. Here, 1-methoxyphenazine methosulfate (MPMS, Sigma) was used as an electron transfer mediator between CO-DH and INT. A mixture solution of 19.2 ml of 50 mM Tris-HCl (pH 7.5), 250 μl of INT (9.8 mM), 50 μl of MPMS (8.9 mM), and 500 μl of Triton X-100 (25%, v/v) was saturated with CO gas. 800 μl of the resultant solution was added into a plastic cuvette, and then each compound was added thereto to a final concentration of 12.5 μM. Last, 800 μl of the enzyme extract was added thereto, followed by reaction at 30° C. for 200 seconds. Here, the absorbance change is due to red formazan generated resulting from INT reduction, and was measured at 496 nm by using a spectrophotometer (U-2000, Hitachi) equipped with a temperature adjuster. Enzyme specific activity was expressed as nmoles of reduced INT per mg of protein per minute (nmol/mg protein/min). The enzyme specific activity of each compound treatment group was expressed as a percentage of the control group of which enzyme specific activity was set to 100%, and the results were summarized in Table 1.

[4] = test system: marrow cell-derived macrophages; assay: Cytotoxicity test, CellTiter 96 Non-Radioactive Cell Proliferation Assay, marrow cell-derived macrophages; type: cell-based; details: Mus musculus, Macrophage
Protocol: For preparation of mouse macrophages, the mouse femur was severed and then both ends thereof were cut. A 1-ml syringe was filled with the RPMI-1640 medium (Gibco), which was then used to isolate and take marrow cells in the femur. Blood cells were removed from the taken marrow cells by a low-osmotic buffer, and then the number of marrow cells was measured using a microscope. After appropriate dilution with the RPMI-1640 medium, the marrow cells were seeded in a 96-well microplate at 100,000 cells per well. After culturing in a CO2 incubator at 37° C. for 2 hours, cells other than the marrow cells were removed through exchange with a new RPMI-1640 medium. The medium was substituted with a culture supernatant of L929 cells, followed by culturing for 3 days. Again, the medium was substituted with a new culture supernatant of L929 cells, followed by culturing for 3 days.
Cytotoxicity was measured according to the method of Promega Inc., and 15 μl of a staining solution was applied to each well of the 96-well plate. The cells were incubated in a CO2 incubator at 37° C. for 4 hours, and then 100 μl of a quiescent solution was applied thereto. The absorbance of each well was measured at 570 nm using an absorbance measurement equipment from Molecular Devices. The absorbance values of wells not containing the compounds of Chemical Formulas 1 to 4 were compared with those of wells containing the compounds of Chemical Formulas 1 to 4 to determine the inhibition (%). The correlation between inhibition and concentration was calculated using the Prism software from Graphpad to determine IC50 (concentration at 50% inhibition) value. The marrow cell-derived macrophages were prepared by the method as described in Example 3 above.

| Structure (SMILES) | inhibition at 12.5 µM [1] [%] | inhibition at 25 µM [1] [%] | inhibition at 50 µM [1] [%] | IC50 [2] [µM] | Inhibition of CO-DH activity [3] [%] | IC50 [4] [µM] |
| --- | --- | --- | --- | --- | --- | --- |
| COC(=O)c1ccsc1NC(=O)CSc1ccncc1 [Compound 1] | 0 | 2 | 6 | 75.2 | 48 | > 100 |
| COC(=O)c1ccccc1NC(=O)CSc1ccc(Br)cc1 [Compound 2] | 3 | 9 | 12 | 36.4 | 18 | > 100 |
| COC(=O)c1ccccc1NC(=O)CSc1ccccn1 [Compound 3] | 4 | 2 | 8 | 109 | 15 | > 100 |
| COC(=O)c1ccc(Cl)cc1NC(=O)CCSc1ccccn1 [Compound 4] | 2 | 4 | 16 | 158 | 7 | > 100 |
